Data on four compounds can be found in patent publication US7740775B2, “Method for the production of particles” (priority 2001, dated 2010).

The series in a line: Particle size of the isolated crystalline product observed under a microscope.
The mark [1] stands for this setting: two-stage mixing with two HFC 134A streams (FIG. 6 nozzle), no surfactant.
Setting [2] is: two-stage mixing, co-precipitation of salicylic acid (20% w/v) and adipic acid (3% w/v) from acetone.

As to `O=[N+]([O-])[O-].[Ag+]` [silver nitrate], the particle size range under setting [1] is given as ≤ 3 microns.
On to `O=C(O)CCCCC(=O)O` [adipic acid, hexanedioic acid], for which the particle size range by setting is: (comparative single-stage mixing with one HFC 134A stream, no surfactant) 20-100 microns; (single-stage mixing, HFC 134A, 1% w/w Antorox B12 DF surfactant) 20-200 microns; under setting [1], 10-20 microns. The particle size reads like this: (single-stage mixing, HFC 134A, 1% w/w Brij 30 added to 10% w/v solution in ethanol) < 10 micron; under setting [2], “around 10 microns”.
For the compound `CC(=O)Nc1ccc(O)cc1` [paracetamol, N-acetyl-p-aminophenol, reference compound], the particle size (two-stage mixing, HFC 134A, 8% w/v in methanol with 1% w/w Brij 30) is < 3 micron.
In the case of `O=C(O)c1ccccc1O` [salicylic acid], the particle size result under setting [2] is recorded as “below 3 microns”.
